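Where inhibition never reached the appropriate level, the endpoint shown equals the highest concentration tested. Otherwise, values were interpolated linearly from a five-concentration, 48-hour dose response in 96-well plates. Abbreviation: GI50, concentration required for 50% inhibition of growth. TGI: total growth inhibition.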
Experiments:
Assay in all cases: NCI-60 cell line screen, 48 h
A498 renal = test system: A498 renal
CAKI-1 renal = test system: CAKI-1 renal
SF-539 CNS = test system: SF-539 CNS
PC-3 prostate = test system: PC-3 prostate
SN12C renal = test system: SN12C renal
SK-MEL-2 melanoma = test system: SK-MEL-2 melanoma
BT-549 breast = test system: BT-549 breast
KM12 colon = test system: KM12 colon
NCI-H226 lung = test system: NCI-H226 lung
MDA-MB-231 breast = test system: MDA-MB-231 breast
DU-145 prostate = test system: DU-145 prostate
IGROV1 ovarian = test system: IGROV1 ovarian
OVCAR-4 ovarian = test system: OVCAR-4 ovarian
NCI-H522 lung = test system: NCI-H522 lung
HOP-92 NSCLC = test system: HOP-92 NSCLC
NCI-H460 lung = test system: NCI-H460 lung
A549 NSCLC = test system: A549 NSCLC
UO-31 renal = test system: UO-31 renal
HL-60(TB) leukemia = test system: HL-60(TB) leukemia
MALME-3M melanoma = test system: MALME-3M melanoma
ACHN renal = test system: ACHN renal
SW-620 colon = test system: SW-620 colon
HCC-2998 colon = test system: HCC-2998 colon
UACC-62 melanoma = test system: UACC-62 melanoma
OVCAR-8 ovarian = test system: OVCAR-8 ovarian
786-0 renal = test system: 786-0 renal
NCI/ADR-RES ovarian = test system: NCI/ADR-RES ovarian
SK-MEL-5 melanoma = test system: SK-MEL-5 melanoma
K-562 leukemia = test system: K-562 leukemia
COLO 205 colon = test system: COLO 205 colon
HOP-62 NSCLC = test system: HOP-62 NSCLC
LOX IMVI melanoma = test system: LOX IMVI melanoma
U251 CNS = test system: U251 CNS
SK-OV-3 ovarian = test system: SK-OV-3 ovarian
SNB-75 CNS = test system: SNB-75 CNS
OVCAR-3 ovarian = test system: OVCAR-3 ovarian
HT29 colon = test system: HT29 colon
CCRF-CEM leukemia = test system: CCRF-CEM leukemia
SR leukemia = test system: SR leukemia
SNB-19 CNS = test system: SNB-19 CNS
MDA-MB-435 = test system: MDA-MB-435
SF-268 CNS = test system: SF-268 CNS
RPMI-8226 leukemia = test system: RPMI-8226 leukemia
SF-295 CNS = test system: SF-295 CNS
HCT-116 colon = test system: HCT-116 colon
NCI-H23 lung = test system: NCI-H23 lung
T-47D breast = test system: T-47D breast
SK-MEL-28 melanoma = test system: SK-MEL-28 melanoma
OVCAR-5 ovarian = test system: OVCAR-5 ovarian
MCF7 breast = test system: MCF7 breast
M14 melanoma = test system: M14 melanoma
HS 578T breast = test system: HS 578T breast
HCT-15 colon = test system: HCT-15 colon
TK-10 renal = test system: TK-10 renal
RXF 393 renal = test system: RXF 393 renal
UACC-257 melanoma = test system: UACC-257 melanoma
MOLT-4 leukemia = test system: MOLT-4 leukemia

Compound: CC(CO)Nc1cc(-c2[nH]c3cccnc3c2-c2ccc(F)cc2)ccn1 (centres undefined)
- GI50 (A498 renal): 4.36 µM
- TGI (A498 renal): 25 µM
- GI50 (CAKI-1 renal): 8.23 µM
- TGI (CAKI-1 renal): > 25 µM
- GI50 (SF-539 CNS): > 25 µM
- TGI (SF-539 CNS): > 25 µM
- GI50 (PC-3 prostate): 21.5 µM
- TGI (PC-3 prostate): > 25 µM
- GI50 (SN12C renal): 15.1 µM
- TGI (SN12C renal): > 25 µM
- GI50 (SK-MEL-2 melanoma): > 25 µM
- TGI (SK-MEL-2 melanoma): > 25 µM
- GI50 (BT-549 breast): 16.1 µM
- TGI (BT-549 breast): > 25 µM
- GI50 (KM12 colon): 19.1 µM
- TGI (KM12 colon): > 25 µM
- GI50 (NCI-H226 lung): > 23.8 µM
- TGI (NCI-H226 lung): > 25 µM
- GI50 (MDA-MB-231 breast): 19.3 µM
- TGI (MDA-MB-231 breast): > 25 µM
- GI50 (DU-145 prostate): 17.6 µM
- TGI (DU-145 prostate): > 25 µM
- GI50 (IGROV1 ovarian): 6.77 µM
- TGI (IGROV1 ovarian): > 25 µM
- GI50 (OVCAR-4 ovarian): > 25 µM
- TGI (OVCAR-4 ovarian): > 25 µM
- GI50 (NCI-H522 lung): > 25 µM
- TGI (NCI-H522 lung): > 25 µM
- GI50 (HOP-92 NSCLC): 2.74 µM
- TGI (HOP-92 NSCLC): > 25 µM
- GI50 (NCI-H460 lung): 8.16 µM
- TGI (NCI-H460 lung): > 25 µM
- GI50 (A549 NSCLC): 8.47 µM
- TGI (A549 NSCLC): > 25 µM
- GI50 (UO-31 renal): 3.89 µM
- TGI (UO-31 renal): > 25 µM
- GI50 (HL-60(TB) leukemia): > 25 µM
- TGI (HL-60(TB) leukemia): > 25 µM
- GI50 (MALME-3M melanoma): 16.9 µM
- TGI (MALME-3M melanoma): > 25 µM
- GI50 (ACHN renal): 3.99 µM
- TGI (ACHN renal): > 25 µM
- GI50 (SW-620 colon): 20.3 µM
- TGI (SW-620 colon): > 25 µM
- GI50 (HCC-2998 colon): > 25 µM
- TGI (HCC-2998 colon): > 25 µM
- GI50 (UACC-62 melanoma): 11.4 µM
- TGI (UACC-62 melanoma): > 25 µM
- GI50 (OVCAR-8 ovarian): 15.7 µM
- TGI (OVCAR-8 ovarian): > 25 µM
- GI50 (786-0 renal): 18.6 µM
- TGI (786-0 renal): > 25 µM
- GI50 (NCI/ADR-RES ovarian): > 25 µM
- TGI (NCI/ADR-RES ovarian): > 25 µM
- GI50 (SK-MEL-5 melanoma): 10.3 µM
- TGI (SK-MEL-5 melanoma): > 25 µM
- GI50 (K-562 leukemia): 23.4 µM
- TGI (K-562 leukemia): > 25 µM
- GI50 (COLO 205 colon): 13.8 µM
- TGI (COLO 205 colon): > 25 µM
- GI50 (HOP-62 NSCLC): > 25 µM
- TGI (HOP-62 NSCLC): > 25 µM
- GI50 (LOX IMVI melanoma): 13.7 µM
- TGI (LOX IMVI melanoma): > 25 µM
- GI50 (U251 CNS): 15.4 µM
- TGI (U251 CNS): > 25 µM
- GI50 (SK-OV-3 ovarian): 15 µM
- TGI (SK-OV-3 ovarian): > 25 µM
- GI50 (SNB-75 CNS): 14.8 µM
- TGI (SNB-75 CNS): > 25 µM
- GI50 (OVCAR-3 ovarian): 16.8 µM
- TGI (OVCAR-3 ovarian): > 25 µM
- GI50 (HT29 colon): 9.77 µM
- TGI (HT29 colon): > 25 µM
- GI50 (CCRF-CEM leukemia): > 25 µM
- TGI (CCRF-CEM leukemia): > 25 µM
- GI50 (SR leukemia): 17 µM
- TGI (SR leukemia): > 25 µM
- GI50 (SNB-19 CNS): > 21.6 µM
- TGI (SNB-19 CNS): > 25 µM
- GI50 (MDA-MB-435): > 22.4 µM
- TGI (MDA-MB-435): > 25 µM
- GI50 (SF-268 CNS): 16.7 µM
- TGI (SF-268 CNS): > 25 µM
- GI50 (RPMI-8226 leukemia): 17 µM
- TGI (RPMI-8226 leukemia): > 25 µM
- GI50 (SF-295 CNS): > 25 µM
- TGI (SF-295 CNS): > 25 µM
- GI50 (HCT-116 colon): 13.4 µM
- TGI (HCT-116 colon): > 25 µM
- GI50 (NCI-H23 lung): > 25 µM
- TGI (NCI-H23 lung): > 25 µM
- GI50 (T-47D breast): 17.1 µM
- TGI (T-47D breast): > 25 µM
- GI50 (SK-MEL-28 melanoma): > 25 µM
- TGI (SK-MEL-28 melanoma): > 25 µM
- GI50 (OVCAR-5 ovarian): 22.8 µM
- TGI (OVCAR-5 ovarian): > 25 µM
- GI50 (MCF7 breast): 9.36 µM
- TGI (MCF7 breast): > 25 µM
- GI50 (M14 melanoma): > 25 µM
- TGI (M14 melanoma): > 25 µM
- GI50 (HS 578T breast): 16.8 µM
- TGI (HS 578T breast): > 25 µM
- GI50 (HCT-15 colon): 10.4 µM
- TGI (HCT-15 colon): > 25 µM
- GI50 (TK-10 renal): 6.86 µM
- TGI (TK-10 renal): > 25 µM
- GI50 (RXF 393 renal): 12.5 µM
- TGI (RXF 393 renal): > 25 µM
- GI50 (UACC-257 melanoma): > 25 µM
- TGI (UACC-257 melanoma): > 25 µM
- GI50 (MOLT-4 leukemia): > 25 µM
- TGI (MOLT-4 leukemia): > 25 µM
